Reference: patent publication US20240173440A1, “HIGH PURITY COPPER RADIOPHARMACEUTICAL COMPOSITIONS AND DIAGNOSTIC AND THERAPEUTIC USES THEREOF” (Nuclidium AG, priority 2022, published 2024)

Legend:
SST2 [1] = target: T1, SST2 (Homo sapiens (Human), UniProt P30874); assay: Competitive binding assay (IC50) on HEK-SST2 cell membranes with 125I-Tyr-somatostatin-14; conditions: 1 hour at 37° C., radioligand [^125I]-Tyr-somatostatin-14 0.05 nM, mean ± SD
Description: Quantification of the free and bound radioligand was performed in a gamma-counter. The data were analyzed by GraphPad Prism 9 Software and the IC50 values were determined using the “log(inhibitor) vs response” equation based on the specific binding=total−non-specific binding.
Table 18. IC50 values were determined by competitive assays. […] The results are expressed as means standard deviation (SD) from a minimum of two separate experiments, each in triplicates.

[2] = Lipophilicity, log D by shake-flask method (1-octanol/PBS pH 7.4); assay type: physicochemical; conditions: pH 7.4, shake-flask, Table 17, mean ± SD, read-out: log D(O/PBS pH 7.4)
Procedure, shortened: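 Radiotracer shaken 30 min in pre-saturated 1-octanol/PBS pH 7.4 (1:1), then centrifuged for phase separation. Radioactivity in each phase measured by gamma counting; log D reported as the average log of organic/PBS activity ratio.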

HEK-SST2 xenografts = assay: PET/CT imaging in HEK-SST2 xenografted mice; assay type: in vivo; conditions: 0-60 min and 240 min
Description: Tumor xenografted mice were injected intravenously into the tail vein with the tested radiotracer. […] Mice were anesthetized with 1.5% isoflurane and dynamic PET scans were acquired during 1 hour upon injection of the radiotracer. The mice were euthanized by CO2 at 4 hours p.i., the bladder was mechanically emptied, and static PET scans were acquired for 30 min. PET images were acquired using the R-CUBE PET scanner system (MOLECUBES, Gent, Belgium) and they were decay corrected and reconstructed with the VivoQuant software version 4.0. The CT was imaged supine, headfirst, using the NanoSPECT/CT™ scanner (Bioscan Inc.). Topograms and helical CT scans of the whole mouse were first acquired using the following parameters: X-ray tube current: 177 μA, X-ray tube voltage 45 kVp, 90 seconds and 180 frames per rotation, pitch 1. CT images were reconstructed using CTReco (version r1.146), with a standard filtered back projection algorithm (exact cone beam) and post-filtered (RamLak, 100% frequency cut-off), resulting in a pixel size of 0.2 mm. Co-registered PET/CT images were visualized using maximum intensity projection (MIP) with InVivoScope (version 1.43, Bioscan Inc.). The results are presented in the Examples that follow.

SST2 [3] = target: T1, SST2; assay: Saturation binding on HEK-SST2 cell membranes; conditions: 37° C.
Description: Cell Membrane Preparation: HEK-SST2 cells were grown to confluence, mechanically disaggregated, washed with PBS (pH 7.4) and re-suspended in 20 mM of homogenization Tris buffer (pH 7.5) containing 1.3 mM EDTA, 0.25 M sucrose, 0.7 mM bacitracin, 5 μM soybean trypsin inhibitor, and 0.7 mM PMSF. The cells were homogenized using Ultra-Turrax, and the homogenized suspension was centrifuged at 500×g for 10 min at 4° C. The supernatant was collected in centrifuge tubes (Beckman Coulter Inc., Brea, CA, USA). This procedure was then repeated 5 times. The collected supernatant was centrifuged in an ultra-centrifuge (Beckman) at 4° C. for 55 min at 49,000×g. Then, the pellet was re-suspended in 10 mM ice-cold HEPES buffer (pH 7.5), aliquoted, and stored at −80° C. The protein concentration of those membrane suspensions was determined by the Bradford method, BSA as the standard.
Saturation Experiment: The association profiles of [^61Cu]Cu-NODAGA-LM3 was studied at different concentrations, ranging from 0.075 to 10 nM, in HEK-SST2 cell membranes at 37° C. Each assay tube contained 170 μL of binding buffer (20 mM HEPES, pH 7.4, containing 4 mM μgCl2, 0.2% BSA, 20 μg/L bacitracin, 20 μg/L PMSF and 200,000 KIU/L aprotinin). […] The dissociation constant (KD) and maximal binding capacity (Bmax) values were calculated using GraphPad Software Inc., Prism 7, San Diego, CA, USA (FIG. 37)

in vivo = conditions: iv, 20 umol, total radioactivity
Description: The tumors were allowed to grow for 1-3 weeks before commencement of the experiments.
The mice were randomly distributed in groups and euthanized at 1 and at 4 hours post-injection. The organs of interest were collected, rinsed, blotted, weighed and counted in a gamma counter. The results are expressed as percentage of injected activity per gram (% IA/g), representing the mean±standard deviation of n=4-8 mice per group and they were obtained by extrapolation from counts of an aliquot taken from the injected solution as standard.
The mice were randomly distributed in groups, injected with the radiotracer under investigation and euthanized at 1 and at 4 hours post-injection of the radiotracers under investigation. The organs of interest were collected, rinsed, blotted, weighed and counted in a gamma counter. The results are expressed as percentage of injected activity per gram (% IA/g), representing the mean±standard deviation of all mice per group and they were obtained by extrapolation from counts of an aliquot taken from the injected solution as standard.
The mice were randomly distributed in groups and euthanized at 4 hours post-injection. The organs of interest were collected, rinsed, blotted, weighed, and their respective radioactivity was counted in a gamma counter.

T1 sequence (P30874 whole entry): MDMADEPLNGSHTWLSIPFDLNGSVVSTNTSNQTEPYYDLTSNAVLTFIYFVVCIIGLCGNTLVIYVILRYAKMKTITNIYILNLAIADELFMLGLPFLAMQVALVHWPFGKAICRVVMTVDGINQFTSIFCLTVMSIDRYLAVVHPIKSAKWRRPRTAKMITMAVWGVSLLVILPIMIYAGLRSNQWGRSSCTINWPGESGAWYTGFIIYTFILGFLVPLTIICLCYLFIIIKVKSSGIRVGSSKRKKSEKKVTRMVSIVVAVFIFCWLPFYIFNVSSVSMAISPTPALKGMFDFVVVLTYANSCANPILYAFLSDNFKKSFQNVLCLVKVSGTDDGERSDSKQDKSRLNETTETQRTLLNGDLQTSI

Row | IC50 (SST2 [1]) | logD [2] | distribution pattern on PET/CT (HEK-SST2 xenografts) | Kd (SST2 [3]) | tissue uptake at 4 h (in vivo; athymic nude Foxn1+Foxn1+, mouse, Biodistribution Adrenal) | tissue uptake at 4 h (in vivo; athymic nude Foxn1+Foxn1+, mouse, Biodistribution Blood) | tissue uptake at 4 h (in vivo; athymic nude Foxn1+Foxn1+, mouse, Biodistribution Heart) | tissue uptake at 4 h (in vivo; athymic nude Foxn1+Foxn1+, mouse, Biodistribution Intestine) | tissue uptake at 4 h (in vivo; athymic nude Foxn1+Foxn1+, mouse, Biodistribution Liver) | tissue uptake at 4 h (in vivo; athymic nude Foxn1+Foxn1+, mouse, Biodistribution Lung) | tissue uptake at 4 h (in vivo; athymic nude Foxn1+Foxn1+, mouse, Biodistribution Pancreas) | tissue uptake at 4 h (in vivo; athymic nude Foxn1+Foxn1+, mouse, Biodistribution Spleen) | tissue uptake at 4 h (in vivo; athymic nude Foxn1+Foxn1+, mouse, Biodistribution Stomach) | tissue uptake at 4 h (in vivo; athymic nude Foxn1, mouse, Biodistribution Bone) | tissue uptake at 4 h (in vivo; athymic nude Foxn1, mouse, Biodistribution Kidneys) | tissue uptake at 4 h (in vivo; athymic nude Foxn1, mouse, Biodistribution Muscle) | tissue uptake at 4 h (in vivo; athymic nude Foxn1, mouse, Biodistribution Pituitary) | tissue uptake at 4 h (in vivo; athymic nude Foxn1, mouse, Biodistribution SSTR2-tumor) | Compound
1 | 17.8 ± 2 nM |  |  |  |  |  |  |  |  |  |  |  |  |  |  |  |  |  | CC(O)C1NC(=O)C(CCCCN)NC(=O)C(Cc2ccc(NC(N)=O)cc2)NC(=O)C(Cc2ccc(O)cc2)NC(=O)C(NC(=O)C(Cc2ccc(Cl)cc2)NC(=O)CCC(C(=O)O)N2CCN(CC(=O)O)CCN(CC(=O)O)CC2)CSSCC(C(=O)NC(Cc2ccc(O)cc2)C(N)=O)NC1=O (stereo not drawn) [NODAGA-LM3]
2 |  | -2.42 ± 0.04 | same distribution pattern | 1.41 to 2.92 nM | 0.6 ± 0.15 %ID/g | 0.11 ± 0.02 %ID/g | 0.13 ± 0.02 %ID/g | 0.43 ± 0.08 %ID/g | 0.44 ± 0.06 %ID/g | 0.32 ± 0.05 %ID/g | 0.43 ± 0.12 %ID/g | 0.14 ± 0.01 %ID/g | 0.68 ± 0.15 %ID/g | 0.31 ± 0.07 %ID/g | 4.59 ± 0.41 %ID/g | 0.06 ± 0.02 %ID/g | 2.96 ± 0.62 %ID/g | 20.4 ± 4.2 %ID/g | C[C@@H](O)[C@@H]1NC(=O)[C@H](CCCCN)NC(=O)[C@@H](Cc2ccc(NC(N)=O)cc2)NC(=O)[C@H](Cc2ccc(O)cc2)NC(=O)[C@H](NC(=O)[C@H](Cc2ccc(Cl)cc2)NC(=O)CCC(C(=O)O)N2CCN(CC(=O)O)CCN(CC(=O)O)CC2)CSSC[C@@H](C(=O)N[C@H](Cc2ccc(O)cc2)C(N)=O)NC1=O (stereo partly drawn) [[^61Cu]Cu-NODAGA-LM3, metal not drawn]
